# Patent publication US20060173080A1, “Methods of modulating TNF using bupropion” (The Regents of the University of California, priority 2002, published 2006)
# Entries after “also recorded” stand apart in the source; their conditions may differ. Counter-ions that a name gives are not always drawn.
# Key:
# [1] = system: major depression; experiment: Course of major depression in the case patients on bupropion; assay type: in vivo, human; conditions: case patients on bupropion 150 mg BID or TID; hydrochloride
# Protocol: After careful review of treatment options, they were started on bupropion (fluoxetine was stopped) with up-titration to 150 mg twice a day. Their abdominal complaints eased over the next months, and the major depression remitted. The baseline dysthymia remained. To better treat the dysthymia, bupropion was raised to 150 mg three times daily with a further lowering of their CDAI. The mesalamine was tapered off. Their CDAI is currently approximately zero. They have one well-formed bowel movement daily and has been without abdominal symptoms or encopresis for 19 months now. They have had no CD flares since starting bupropion. Twice in the last year, they stopped bupropion on their own accord because they felt completely well and felt they didn't need bupropion anymore. […] A person with NYSHA Class I CHF who started on bupropion for major depression. Their TNF before bupropion was 347 pg/ml and 5 pg/ml after two months on bupropion 150 mg twice a day (BID). […] In addition, a person with a history of two myocardial infarctions and NYSHA Class II CHF, who started on bupropion for major depression and desire to stop a 1.5 container/day chewing tobacco habit. Their TNF before starting bupropion was 433 pg/ml, and […] and then four weeks on bupropion 150 mg three times a day (TID). They subsequently stopped using tobacco and their depression is in remission.
# [2] = system: TNF; experiment: Serum TNF by ELISA in LPS-challenged mice; assay type: in vivo, BALB/c mice; conditions: bupropion 100 mg/kg i.p. 1 h before 600 μg LPS i.p., serum 90 min after LPS
# Protocol: (§1) To study the immunomodulatory effects of bupropion we used a mouse model in which TNF production is induced by stimulation with lipopolysaccharide (LPS) (Bozza et al, The PACAP-type I receptor agonist maxadilan from sand fly saliva protects mice against lethal endotoxemia by a mechanism partially dependent on IL-10, Eur. J. Immunol. 28, 3120-3127, 1998). BALB/c mice were injected intraperitoneally (i.p.) with bupropion or placebo 1 h prior to i.p. injection of LPS (600 ug/mouse).
# (§2) Male, 6 weeks old BALB/c mice were used in LPS-induced shock experiments. All mice were raised and maintained at the animal facilities at the Goncalo Moniz Research Center-FIOCRUZ, and provided with rodent diet and water ad libitum. Animal numbers in experimental groups were the minimum necessary to permit statistical analysis. All animals were sacrificed under anaesthesia.
# Groups of mice were injected intraperitoneally (i.p.) with a dose of 600 μg of LPS (from Escherichia coli serotype 0111 :B4, Sigma, St. Louis, Mo., USA) in saline (previously determined as LD 100) 1 h after injection of placebo or bupropion. In some experiments, groups of mice received i.p. injection of propranolol (1 mg/Kg), SCH23390 (25 μg/kg) and sulpiride (25 mg/Kg) 1 h prior to injection of bupropion. […]. To determine serum TNF, IL-1 beta and IL-10 levels, mice were sacrificed 90 min after injection of LPS and bled by axilar vein puncture. Levels of IFN-gamma and nitric oxide were assayed using sera of mice sacrificed 4 h after LPS injection. Platelet and leukocyte cell counts were performed using blood collected with EDTA after 4 h of LPS challenge, using an automated cell counter (ADVIA 60, Bayer).
# (§3) TNF, IL-1beta, IFN-gamma and IL-10 concentrations in serum samples or in supernatants from macrophage cultures were determined by enzyme-linked immunosorbent assay (ELISA) using antibody pairs and recombinant cytokines from R&D systems (Minneapolis, Minn., USA), according to the manufacturer's instructions. After incubation with streptoavidin-peroxidase conjugate (Sigma), the reaction was developed using 3,3′, 5,5′-tetramethylbenzidine (TMB) peroxidase substrate and read at 450 nm. The serum concentration of nitrite (NO2−) was determined by the Griess reaction, as an indicator of nitric oxide production (Green et al., Analysis of nitrate nitrite and [^15N] nitrite in biological fluids. Anal. Biochem 126, 131-138, 1982). […] The absorbance of the reaction product at 540 nm was measured using an ELISA reader. The NO2^− concentration was determined by using sodium nitrite as standard. Data were analyzed using Student's t test, one-way ANOVA or Newman-Keuls multiple comparison test, using Graph Pad Prism 3.0 software. […]
# [3] = system: IFN-gamma; experiment: Serum IFN-gamma by ELISA in LPS-challenged mice; assay type: in vivo, BALB/c mice; conditions: bupropion 100 mg/kg i.p. 1 h before 600 μg LPS i.p., serum 4 h after LPS
# Protocol: as §1
# as §2, with “anaesthesia. […]” for “anaesthesia.”
# as §3
# [4] = listed as bupropion hydrochloride
# [5] = listed as Bupropion, hydrochloride
compound,measurement,setting,value
"CC(NC(C)(C)C)C(=O)c1cccc(Cl)c1 (racemic) [bupropion, (.±.)-1-(3-chlorophenyl)-2-[(1,1-dimethylethyl)amino]-1-propanone hydrochloride]",depression outcome,[1],partially controlled; also recorded: in remission; also recorded: remitted
same,serum TNF level compared with placebo,[2]; [4],decrease
same,serum TNF level compared with placebo,[2]; hydrochloride,lowers; also recorded: significantly reduced
same,serum TNF level compared with placebo,[2]; [5],significantly decreased
same,serum TNF level compared with placebo,"[2]; listed as buproprion, hydrochloride",decreased
same,serum IFN-gamma level compared with placebo,[3]; [4],decrease
same,serum IFN-gamma level compared with placebo,[3]; hydrochloride,significantly reduced
same,serum IFN-gamma level compared with placebo,[3]; [5],significantly decreased
